Results published in patent publication US8415469B2, “Compounds and methods for kinase modulation, and indications therefor” (Plexxikon Inc., priority 2005, dated 2013).

Assays:
Format in all cases: biochemical
c-Raf-1 = target: T1, c-Raf-1 (Homo sapiens, UniProt P04049); assay: AlphaScreen kinase assay, c-Raf-1; details: read-out: IC50, activity toward kinase c-Raf-1
T1 construct: purchased Upstate Biotechnology

B-Raf V600E = target: T2, B-Raf V600E (Homo sapiens, UniProt P15056, V600E); assay: AlphaScreen kinase assay, B-Raf V600E; details: read-out: IC50, activity toward kinase B-Raf V600E
T2 construct: P4254. pFastBacBD-CDC37 BRAF D437-K722-X, V600E; His6 with pFastBac HT leader (TEV site) (N); made in house; host or cells: Sf9 (baculovirus; chaperone CDC37 co-expressed)

B-Raf = target: T3, B-Raf (Homo sapiens, UniProt P15056); assay: AlphaScreen kinase assay, B-Raf; details: read-out: IC50, activity toward kinase B-Raf
T3 construct: purchased Upstate Biotechnology

Fms = target: T4, Fms (Homo sapiens, UniProt P07333); assay: AlphaScreen kinase assay, Fms; details: read-out: IC50, activity toward kinase Fms
T4 construct: purchased Upstate Biotechnology

FGFR1 = target: T5, FGFR1 (Homo sapiens, UniProt P11362, C488A/C584S); assay: AlphaScreen kinase assay, FGFR1; details: read-out: IC50, activity toward kinase FGFR
T5 construct: P1351.pET N6 BI-PTP FGFR A458-E765-X C488A, C584S; made in house; host or cells: E. coli (PTP1B co-expressed)

Kit = target: T6, Kit (Homo sapiens, UniProt P10721); assay: AlphaScreen kinase assay, Kit; details: read-out: IC50, activity toward kinase Kit
T6 construct: P1332.N6 BI PTP KIT M552-K948-X COD; His6 (N); made in house; host or cells: E. coli (PTP1B co-expressed)

Measured: IC50

T2 sequence (P15056 with tags, fused parts or gaps V600E): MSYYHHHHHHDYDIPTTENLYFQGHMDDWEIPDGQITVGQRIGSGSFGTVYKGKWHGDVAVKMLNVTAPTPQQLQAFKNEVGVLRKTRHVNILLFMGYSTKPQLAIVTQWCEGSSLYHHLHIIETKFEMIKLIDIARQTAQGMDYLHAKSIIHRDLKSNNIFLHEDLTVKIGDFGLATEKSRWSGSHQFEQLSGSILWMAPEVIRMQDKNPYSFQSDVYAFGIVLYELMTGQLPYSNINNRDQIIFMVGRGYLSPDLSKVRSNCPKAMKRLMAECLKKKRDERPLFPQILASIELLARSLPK
T6 sequence (P10721 with tags, fused parts or gaps): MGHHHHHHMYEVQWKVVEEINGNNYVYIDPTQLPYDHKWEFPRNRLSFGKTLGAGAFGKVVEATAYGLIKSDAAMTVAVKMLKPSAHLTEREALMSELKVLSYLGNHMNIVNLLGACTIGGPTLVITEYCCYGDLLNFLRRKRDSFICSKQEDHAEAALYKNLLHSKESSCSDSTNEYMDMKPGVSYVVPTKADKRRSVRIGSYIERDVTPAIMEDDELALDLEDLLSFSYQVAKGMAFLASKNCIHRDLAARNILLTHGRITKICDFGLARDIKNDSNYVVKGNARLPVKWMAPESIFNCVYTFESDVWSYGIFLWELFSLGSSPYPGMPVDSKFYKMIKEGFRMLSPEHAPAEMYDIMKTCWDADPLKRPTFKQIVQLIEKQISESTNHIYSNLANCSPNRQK
T4 sequence (P07333 20-972): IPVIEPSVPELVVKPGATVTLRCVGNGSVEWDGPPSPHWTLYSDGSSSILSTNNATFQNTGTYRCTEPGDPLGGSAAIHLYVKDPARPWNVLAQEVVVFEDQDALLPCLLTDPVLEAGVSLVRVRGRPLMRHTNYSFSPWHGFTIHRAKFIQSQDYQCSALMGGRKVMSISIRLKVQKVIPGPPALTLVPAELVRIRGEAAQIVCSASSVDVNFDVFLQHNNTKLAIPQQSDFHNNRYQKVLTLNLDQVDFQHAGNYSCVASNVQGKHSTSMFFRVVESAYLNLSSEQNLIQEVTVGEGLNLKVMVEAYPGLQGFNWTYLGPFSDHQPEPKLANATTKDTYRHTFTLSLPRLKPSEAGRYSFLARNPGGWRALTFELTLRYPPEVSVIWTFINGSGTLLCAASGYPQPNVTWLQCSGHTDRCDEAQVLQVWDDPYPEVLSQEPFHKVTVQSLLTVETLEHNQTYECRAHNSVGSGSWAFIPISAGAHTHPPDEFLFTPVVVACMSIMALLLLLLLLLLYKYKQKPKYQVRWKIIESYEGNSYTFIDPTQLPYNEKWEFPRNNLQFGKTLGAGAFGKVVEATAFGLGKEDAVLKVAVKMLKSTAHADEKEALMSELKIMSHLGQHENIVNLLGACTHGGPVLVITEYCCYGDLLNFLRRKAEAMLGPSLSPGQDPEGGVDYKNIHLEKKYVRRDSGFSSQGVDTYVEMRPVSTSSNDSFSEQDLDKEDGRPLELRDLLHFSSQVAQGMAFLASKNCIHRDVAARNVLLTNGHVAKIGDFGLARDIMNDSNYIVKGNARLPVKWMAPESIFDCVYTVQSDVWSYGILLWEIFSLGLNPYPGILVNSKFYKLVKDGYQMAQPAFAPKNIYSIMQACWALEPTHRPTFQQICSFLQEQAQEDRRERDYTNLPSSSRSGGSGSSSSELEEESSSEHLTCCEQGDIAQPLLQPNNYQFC
T3 sequence (P15056 whole entry): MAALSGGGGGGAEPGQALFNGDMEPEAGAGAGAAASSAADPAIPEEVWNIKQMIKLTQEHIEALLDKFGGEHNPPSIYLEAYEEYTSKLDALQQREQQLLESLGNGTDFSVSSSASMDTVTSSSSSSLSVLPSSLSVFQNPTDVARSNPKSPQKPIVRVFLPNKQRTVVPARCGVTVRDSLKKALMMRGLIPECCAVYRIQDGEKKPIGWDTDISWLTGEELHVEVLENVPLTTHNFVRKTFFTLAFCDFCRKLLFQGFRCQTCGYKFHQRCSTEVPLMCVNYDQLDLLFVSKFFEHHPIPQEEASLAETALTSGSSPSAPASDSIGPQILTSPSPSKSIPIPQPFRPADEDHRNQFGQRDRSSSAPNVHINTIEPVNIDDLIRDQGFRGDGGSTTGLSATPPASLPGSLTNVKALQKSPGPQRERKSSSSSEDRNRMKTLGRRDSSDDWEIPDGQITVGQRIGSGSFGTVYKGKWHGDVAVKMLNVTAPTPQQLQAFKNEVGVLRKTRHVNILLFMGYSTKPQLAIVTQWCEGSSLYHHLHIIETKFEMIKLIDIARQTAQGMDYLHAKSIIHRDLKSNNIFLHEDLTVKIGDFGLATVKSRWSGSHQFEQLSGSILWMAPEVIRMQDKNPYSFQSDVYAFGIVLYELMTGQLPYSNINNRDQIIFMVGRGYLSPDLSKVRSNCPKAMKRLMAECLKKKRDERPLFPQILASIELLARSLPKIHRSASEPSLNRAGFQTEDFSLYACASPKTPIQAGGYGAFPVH
T1 sequence (P04049 whole entry): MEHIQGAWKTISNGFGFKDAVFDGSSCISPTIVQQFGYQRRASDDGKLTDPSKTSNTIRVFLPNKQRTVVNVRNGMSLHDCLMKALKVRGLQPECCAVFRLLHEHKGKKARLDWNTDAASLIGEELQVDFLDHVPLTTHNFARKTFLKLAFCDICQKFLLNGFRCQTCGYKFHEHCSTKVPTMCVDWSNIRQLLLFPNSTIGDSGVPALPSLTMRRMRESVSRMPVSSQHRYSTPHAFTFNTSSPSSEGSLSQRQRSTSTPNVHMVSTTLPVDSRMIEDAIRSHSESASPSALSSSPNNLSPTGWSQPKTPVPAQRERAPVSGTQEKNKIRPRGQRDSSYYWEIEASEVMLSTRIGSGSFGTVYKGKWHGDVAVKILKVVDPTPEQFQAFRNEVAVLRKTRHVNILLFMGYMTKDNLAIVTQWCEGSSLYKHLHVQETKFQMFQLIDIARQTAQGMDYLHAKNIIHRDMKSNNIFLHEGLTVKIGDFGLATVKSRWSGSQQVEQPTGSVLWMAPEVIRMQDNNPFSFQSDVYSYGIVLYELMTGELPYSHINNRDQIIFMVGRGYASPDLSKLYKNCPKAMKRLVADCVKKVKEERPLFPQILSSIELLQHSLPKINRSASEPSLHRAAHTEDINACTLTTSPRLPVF
T5 sequence (P11362 458-765 C488A/C584S): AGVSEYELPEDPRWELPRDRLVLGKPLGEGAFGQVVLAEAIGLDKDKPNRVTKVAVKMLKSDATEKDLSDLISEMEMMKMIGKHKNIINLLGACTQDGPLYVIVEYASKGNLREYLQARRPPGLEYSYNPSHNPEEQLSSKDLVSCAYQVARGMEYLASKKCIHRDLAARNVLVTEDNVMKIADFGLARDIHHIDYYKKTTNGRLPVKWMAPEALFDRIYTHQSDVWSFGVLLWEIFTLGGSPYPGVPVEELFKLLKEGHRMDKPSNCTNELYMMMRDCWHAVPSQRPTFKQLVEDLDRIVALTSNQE

COC(c1ccc(NCc2ccc(C(F)(F)F)cc2)nc1)c1c[nH]c2ncccc12 (stereo not drawn) [Compound P-0382]
≤ 10 µM: c-Raf-1 | B-Raf V600E | B-Raf

COc1cccc(Cc2c[nH]c3ncc(Br)cc23)c1F [Compound P-0535, 5-Bromo-3-(2-fluoro-3-methoxy-benzyl)-1H-pyrrolo[2,3-b]pyridine]
not listed: B-Raf
≤ 10 µM: all other assays above

CCCS(=O)(=O)Nc1ccc(Cl)c(C(=O)c2c[nH]c3ncc(-c4ccccc4)cc23)c1F [Compound P-0776, Propane-1-sulfonic acid [4-chloro-2-fluoro-3-(5-phenyl-1H-pyrrolo[2,3-b]pyridine-3-carbonyl)-phenyl]-amide]
not listed: Fms
≤ 10 µM: all other assays above

COC(c1ccc(N(Cc2ccc(Cl)cc2)C(=O)OC(C)(C)C)nc1)c1c[nH]c2ncc(Br)cc12 (stereo not drawn) [Compound P-0779]
≤ 10 µM: c-Raf-1 | B-Raf V600E | B-Raf

O=C(Nc1ccc(F)c(C(=O)c2c[nH]c3ncccc23)c1F)OCc1ccccc1 [Compound P-0894, [2,4-Difluoro-3-(1H-pyrrolo[2,3-b]pyridine-3-carbonyl)-phenyl]-carbamic acid benzyl ester]
≤ 10 µM: c-Raf-1 | B-Raf V600E | FGFR1 | B-Raf

CC(=O)Nc1cccc(Nc2ccnc3[nH]ccc23)c1 [Compound P-0941]
≤ 10 µM: c-Raf-1 | B-Raf

O=S(=O)(Nc1ccc(F)c(C(O)c2c[nH]c3ncc(Br)cc23)c1F)c1ccccc1 (stereo not drawn) [Compound P-0959]
≤ 10 µM: c-Raf-1 | B-Raf V600E | B-Raf

O=[N+]([O-])c1cccc(Nc2ccnc3[nH]ccc23)c1 [Compound P-0973]
≤ 10 µM: c-Raf-1 | B-Raf

c1ccc2cc(Nc3ccnc4[nH]ccc34)ccc2c1 [Compound P-0975]
≤ 10 µM: c-Raf-1 | B-Raf

Fc1ccc(Nc2ccnc3[nH]ccc23)cc1F [Compound P-0987]
≤ 10 µM: c-Raf-1 | B-Raf

O=S(=O)(Nc1ccc(F)c(C(O)c2c[nH]c3ncc(F)cc23)c1F)c1ccccc1 (stereo not drawn) [Compound P-1003]
≤ 10 µM: c-Raf-1 | B-Raf V600E | B-Raf

CCCS(=O)(=O)Nc1ccc(Cl)c(C(=O)c2c[nH]c3ncc(Cl)cc23)c1F [Compound P-1004, Propane-1-sulfonic acid [4-chloro-3-(5-chloro-1H-pyrrolo[2,3-b]pyridine-3-carbonyl)-2-fluoro-phenyl]-amide]
≤ 10 µM: c-Raf-1 | B-Raf V600E | FGFR1 | B-Raf

CCCCOc1ccc(S(=O)(=O)Nc2ccc(F)c(C(=O)c3c[nH]c4ncccc34)c2F)cc1 [Compound P-1006, 4-Butoxy-N-[2,4-difluoro-3-(1H-pyrrolo[2,3-b]pyridine-3-carbonyl)-phenyl]-benzenesulfonamide]
≤ 10 µM: c-Raf-1 | B-Raf V600E | B-Raf

Cc1nc2ccc(Nc3ccnc4[nH]ccc34)cc2s1 [Compound P-1014]
≤ 10 µM: c-Raf-1 | B-Raf V600E | B-Raf

CCCS(=O)(=O)Nc1cccc(C(=O)c2c[nH]c3ncc(F)cc23)c1F [Compound P-1028, propane-1-sulfonic acid [2-fluoro-3-(5-fluoro-1H-pyrrolo[2,3-b]pyridine-3-carbonyl)-phenyl]-amide]
≤ 10 µM: c-Raf-1 | B-Raf V600E | B-Raf

CCOc1cccc(Nc2ccnc3[nH]ccc23)c1 [Compound P-1076]
≤ 10 µM: c-Raf-1 | B-Raf

CCCS(=O)(=O)Nc1ccc(F)c(C(O)c2c[nH]c3ncc(OC)cc23)c1F (stereo not drawn) [Compound P-1243, Propane-1-sulfonic acid {2,4-difluoro-3-[hydroxy-(5-methoxy-1H-pyrrolo[2,3-b]pyridin-3-yl)-methyl]-phenyl}-amide]
≤ 10 µM: c-Raf-1 | B-Raf V600E | B-Raf

CCCS(=O)(=O)Nc1ccc(F)c(C(=O)c2c[nH]c3ncc(C(=O)NCC)cc23)c1F [Compound P-1630, 3-[2,6-difluoro-3-(propane-1-sulfonylamino)-benzoyl]-1H-pyrrolo[2,3-b]pyridine-5-carboxylic acid ethylamide]
not listed: FGFR1
≤ 10 µM: all other assays above

O=C(Nc1cccc(C(=O)c2c[nH]c3ncccc23)c1)Nc1cc(C(F)(F)F)ccc1Cl [Compound P-1712, 1-(2-Chloro-5-trifluoromethyl-phenyl)-3-[3-(1H-pyrrolo[2,3-b]pyridine-3-carbonyl)-phenyl]-urea]
not listed: FGFR1
≤ 10 µM: all other assays above

O=C(Nc1cccc(C(=O)c2c[nH]c3ncccc23)c1)Nc1cccc(C(F)(F)F)c1F [Compound P-1714, 1-(2-Fluoro-3-trifluoromethyl-phenyl)-3-[3-(1H-pyrrolo[2,3-b]pyridine-3-carbonyl)-phenyl]-urea]
not listed: FGFR1
≤ 10 µM: all other assays above

O=C(Nc1ccccc1)Nc1cccc(C(=O)c2c[nH]c3ncc(Cl)cc23)c1 [Compound P-1733, 1-[3-(5-Chloro-1H-pyrrolo[2,3-b]pyridine-3-carbonyl)-phenyl]-3-phenyl-urea]
not listed: FGFR1
≤ 10 µM: all other assays above

O=C(Nc1cccc(C(=O)c2c[nH]c3ncc(Cl)cc23)c1)Nc1cc(C(F)(F)F)ccc1Cl [Compound P-1738, 1-[3-(5-Chloro-1H-pyrrolo[2,3-b]pyridine-3-carbonyl)-phenyl]-3-(2-chloro-5-trifluoromethyl-phenyl)-urea]
≤ 10 µM: c-Raf-1 | Fms | B-Raf V600E | B-Raf

O=C(Nc1cccc(C(=O)c2c[nH]c3ncc(Cl)cc23)c1)Nc1ccc(C(F)(F)F)cc1Cl [Compound P-1739, 1-[3-(5-Chloro-1H-pyrrolo[2,3-b]pyridine-3-carbonyl)-phenyl]-3-(2-chloro-4-trifluoromethyl-phenyl)-urea]
not listed: FGFR1
≤ 10 µM: all other assays above
